Results on 3 compounds are retold here after patent US20110046173A1 (priority 2009, published 2011).

One assay deals with acute pain, bunionectomy. In words: Efficacy (SPID48) of 3 to 2 product vs morphine vs oxycodone, bunionectomy study (Example 2). Particulars: for Mean SPID48 Score: 48 hr; for pain control by SPID48 (judged analgesic dose): low doses alone: morphine 6 mg, oxycodone 4 mg. It counts as in vivo, human.
The next assay relates to analgesia. The settings on record: mouse, in vivo; cited from earlier work.

Regarding `CN1CC[C@]23c4c5ccc(O)c4O[C@H]2[C@@H](O)C=C[C@H]3[C@H]1C5` [Morphine, morphine], the “Mean SPID48 Score” value is on record as 51 in the assay on acute pain, bunionectomy (6 mg q6h) and 106 in the assay with acute pain, bunionectomy (12 mg q6h). In addition, the “pain control by SPID48 (judged analgesic dose)” value in the assay with acute pain, bunionectomy is given as “gave pain control”.
Consider `CCC(=O)C(C[C@@H](C)N(C)C)(c1ccccc1)c1ccccc1` [L-methadone], for which the “interaction with morphine, morphine-6-β-glucuronide, codeine, and 6-acetylmorphine” value in the assay on analgesia is “exhibited synergy”.
Turning to `COc1ccc2c3c1O[C@H]1C(=O)CC[C@@]4(O)[C@@H](C2)N(C)CC[C@]314` [Oxycodone, oxycodone], the “Mean SPID48 Score” value is 60 with acute pain, bunionectomy (4 mg q6h) and 99 in the assay on acute pain, bunionectomy (8 mg q6h). Besides, the “pain control by SPID48 (judged analgesic dose)” value with acute pain, bunionectomy is given as “gave pain control”.
